Laboratory results taken from patent US20090264392A1, “TREATING EOSINOPHILIC ESOPHAGITIS” (Meritage Pharma, Inc., priority 2008, published 2009).

Experiments:
[1] = system: patients with greater than 15 eos/HPF and solid food dysphagia (EoE); experiment: Example 2: BRG therapy of eosinophilic esophagitis in adults; type: in vivo, human; conditions: 8 patients who had previously received fluticasone
Method: An oral gel combining budesonide with the mucosal adherent preparation Rincinol (the combination referred to as “BRG”) was compounded. Patients with abnormal Mayo dysphagia questionnaires underwent EGD with biopsies. 16 patients with greater than 15 eos/HPF and solid food dysphagia were enrolled in the study and treated with BRG. Patients were instructed to take BRG 3mg/10 cc BID. If patients noted marked improvement at one week, they were switched to once daily BRG for 6 weeks; otherwise they were continued on BID BRG for a total of 6 weeks. Dysphagia symptoms and BRG side effects over the last two weeks of treatment were assessed by personal interview. Symptoms were evaluated on a scale of dysphagia resolution: <25%, 25-49%, 50-74%, 75-99% or complete resolution. Those patients, who had previously utilized topical fluticasone for EoE, were asked to compare BRG vs topical fluticasone with respect to treatment effect and tolerance.

[2] = system: eosinophilic esophogitis (EoE) patients; experiment: Example 1: budesonide gel therapy in patients with EoE; type: in vivo, human; conditions: tolerance comparison; seven patients who received fluticasone and budesonide therapy
Method: Eighteen patients were entered into the study (mean age 41; 5 females; 13 males). 16 patients had more than 15 eos/HPF on tissue obtained from the esophagus by biopsy during endoscopy. […] Both these patients responded completely to steroids. The mean serum eosinophil count was 215. Three patients had normal endoscopies. Six patients had strictures. […] Mucosal fragility was described in one patient. […] 14 patients underwent allergy testing.
The following symptoms were recorded: dysphagia (18/18), heartburn (9/18), regurgitation (4/18), asthma (5/18), allergic skin disease (1/18), seasonal allergies (8/18), proton pump inhibitor (PPI) medication use to treat esophageal reflux disease (10/18), and history of food impaction (15/18).
Budesonide gel (3 mg/10 mL Rincinol) was formulated as provided below. Preparation involved accurate weighing and measuring of the ingredients. Trituration of the powder into the Rincinol liquid was performed using geometric dilution techniques. The product was stirred using a stir plate, packaged, and labeled.
The standard dose was 3 mg twice a day for one week, which was then decreased to once a day for six weeks. 11 of 18 patients received standard dosing. Six of 18 patients received an alternate treatment regiment of 3 mg twice a day for a variable treatment period of time of greater than one week. The longest of which was eight months. […]

With `C[C@@H]1C[C@H]2[C@@H]3C[C@H](F)C4=CC(=O)C=C[C@]4(C)[C@@]3(F)[C@@H](O)C[C@]2(C)[C@@]1(O)C(=O)SCF` [fluticasone] the “patients who favored fluticasone (tolerance)” value [1] was 25% and the “patients who preferred fluticasone” value [2] was “Two of the seven”.
